Measured values as given in PubChem BioAssay (NCI).
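Each compound was tested at five concentrations against cells in 96-well plates for 48 hours. Definition used: TGI = concentration required for complete inhibition of growth.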

Experiments:
Experiment in all cases: NCI-60 cell line screen, 48 h
IGROV1 ovarian = test system: IGROV1 ovarian
OVCAR-3 ovarian = test system: OVCAR-3 ovarian
A498 renal = test system: A498 renal
SW-620 colon = test system: SW-620 colon
SF-295 CNS = test system: SF-295 CNS
PC-3 prostate = test system: PC-3 prostate
OVCAR-4 ovarian = test system: OVCAR-4 ovarian
HCT-15 colon = test system: HCT-15 colon
UO-31 renal = test system: UO-31 renal

Cc1cc(OCC(=O)N/N=C/C(Br)=C/c2ccccc2)nc(SCC(=O)N/N=C/C(Br)=C/c2ccccc2)n1
TGI (IGROV1 ovarian): > 100 µM
TGI (OVCAR-3 ovarian): > 100 µM
TGI (A498 renal): > 100 µM
TGI (SW-620 colon): > 100 µM
TGI (SF-295 CNS): > 100 µM
TGI (PC-3 prostate): > 100 µM
TGI (OVCAR-4 ovarian): > 100 µM
TGI (HCT-15 colon): > 100 µM
TGI (UO-31 renal): > 100 µM

Cc1c(C)c2c(c(N)c1C#N)C(=O)N(CCN1CCNCC1)C2=O
TGI (IGROV1 ovarian): > 100 µM
TGI (OVCAR-3 ovarian): > 100 µM
TGI (A498 renal): 72.3 µM
TGI (SW-620 colon): > 100 µM
TGI (SF-295 CNS): > 100 µM
TGI (PC-3 prostate): > 100 µM
TGI (OVCAR-4 ovarian): > 100 µM
TGI (HCT-15 colon): > 100 µM
TGI (UO-31 renal): 90.9 µM

CC(=O)OC1CC[C@]2(C)C3CC[C@@]4(C)C(CCC4[C@H](C)CCCC(C)C)[C@@H]3CCC2(Br)C1 (some centres not stated)
TGI (IGROV1 ovarian): 29.7 µM
TGI (OVCAR-3 ovarian): 42.5 µM
TGI (A498 renal): 18 µM
TGI (SW-620 colon): 19.3 µM
TGI (SF-295 CNS): > 50 µM
TGI (PC-3 prostate): 37.7 µM
TGI (OVCAR-4 ovarian): 24 µM
TGI (HCT-15 colon): 33.2 µM
TGI (UO-31 renal): 24.6 µM

O=C(O)c1ccccc1/C=N/NC1=NCCCCN1
TGI (IGROV1 ovarian): > 100 µM
TGI (OVCAR-3 ovarian): > 100 µM
TGI (A498 renal): > 100 µM
TGI (SW-620 colon): > 100 µM
TGI (SF-295 CNS): > 100 µM
TGI (PC-3 prostate): > 100 µM
TGI (OVCAR-4 ovarian): > 100 µM
TGI (HCT-15 colon): > 100 µM
TGI (UO-31 renal): > 100 µM

NC(N)=NCCCC(NC(=O)OCCCCCCn1ccc(N)nc1=O)C(=O)O (configuration not stated)
TGI (IGROV1 ovarian): > 100 µM
TGI (OVCAR-3 ovarian): > 100 µM
TGI (A498 renal): > 100 µM
TGI (SW-620 colon): > 100 µM
TGI (SF-295 CNS): > 100 µM
TGI (PC-3 prostate): > 100 µM
TGI (OVCAR-4 ovarian): > 100 µM
TGI (HCT-15 colon): > 100 µM
TGI (UO-31 renal): > 100 µM

Cc1cc(NS(=O)(=O)c2ccc(Nc3c4ccccc4nc4ccc(C(=O)Nc5ccc(S(N)(=O)=O)cc5)cc34)cc2)no1
TGI (IGROV1 ovarian): > 100 µM
TGI (OVCAR-3 ovarian): > 100 µM
TGI (A498 renal): > 100 µM
TGI (SW-620 colon): > 100 µM
TGI (SF-295 CNS): > 100 µM
TGI (PC-3 prostate): > 100 µM
TGI (OVCAR-4 ovarian): > 100 µM
TGI (HCT-15 colon): > 100 µM
TGI (UO-31 renal): > 100 µM

CCS(=O)(=O)CCn1cnc2c1c(=O)n(C)c(=O)n2C
TGI (IGROV1 ovarian): > 100 µM
TGI (OVCAR-3 ovarian): > 100 µM
TGI (A498 renal): > 100 µM
TGI (SW-620 colon): > 100 µM
TGI (SF-295 CNS): > 100 µM
TGI (PC-3 prostate): > 100 µM
TGI (OVCAR-4 ovarian): > 100 µM
TGI (HCT-15 colon): > 100 µM
TGI (UO-31 renal): > 100 µM

NNc1[nH]c(=S)[nH]c1C(N)=O
TGI (IGROV1 ovarian): > 100 µM
TGI (OVCAR-3 ovarian): > 100 µM
TGI (A498 renal): > 100 µM
TGI (SW-620 colon): > 100 µM
TGI (SF-295 CNS): > 100 µM
TGI (PC-3 prostate): > 100 µM
TGI (OVCAR-4 ovarian): > 100 µM
TGI (HCT-15 colon): > 100 µM
TGI (UO-31 renal): > 100 µM

C=CCOC(=O)[C@@H]1C[C@@H](OC(C)(C)C)CN1C(=O)[C@@H]1[C@H]2OC(C)(C)O[C@H]2CN1C(=O)OCC1c2ccccc2-c2ccccc21
TGI (IGROV1 ovarian): 37.6 µM
TGI (OVCAR-3 ovarian): 35.2 µM
TGI (A498 renal): 30.5 µM
TGI (SW-620 colon): 43.4 µM
TGI (SF-295 CNS): 34.4 µM
TGI (PC-3 prostate): 30.8 µM
TGI (OVCAR-4 ovarian): 34.1 µM
TGI (HCT-15 colon): 39.4 µM
TGI (UO-31 renal): 0.614 µM

Cc1c(C)c(S(=O)(=O)N(CCCN)OCCCN)c(C)c2c1OC(C)(C)C2
TGI (IGROV1 ovarian): 45.8 µM
TGI (OVCAR-3 ovarian): > 100 µM
TGI (A498 renal): 42 µM
TGI (SW-620 colon): 59.8 µM
TGI (SF-295 CNS): 98.9 µM
TGI (PC-3 prostate): 43.3 µM
TGI (OVCAR-4 ovarian): > 100 µM
TGI (HCT-15 colon): > 100 µM
TGI (UO-31 renal): > 100 µM

NC(=O)NC(=O)c1cccc(NC(=O)CBr)c1
TGI (IGROV1 ovarian): 0.368 µM
TGI (OVCAR-3 ovarian): 0.024 µM
TGI (A498 renal): 0.532 µM
TGI (SW-620 colon): 3.3 µM
TGI (SF-295 CNS): 2.7 µM
TGI (PC-3 prostate): 1.49 µM
TGI (OVCAR-4 ovarian): 3.11 µM
TGI (HCT-15 colon): 0.384 µM
TGI (UO-31 renal): 1.68 µM

C=CC[C@@]1(C)CCCCCCCCC[C@@](C)(CC=C)C1=O
TGI (IGROV1 ovarian): > 100 µM
TGI (OVCAR-3 ovarian): 38.1 µM
TGI (A498 renal): 36.4 µM
TGI (SW-620 colon): 63.5 µM
TGI (SF-295 CNS): 37.4 µM
TGI (PC-3 prostate): > 100 µM
TGI (OVCAR-4 ovarian): > 100 µM
TGI (HCT-15 colon): > 100 µM
TGI (UO-31 renal): > 100 µM

Cc1ccc(/C=C/C(=N/NC(=O)N/N=C(/C=C/c2ccc(C)cc2)C(C)(C)CN2CCCCC2)C(C)(C)CN2CCCCC2)cc1
TGI (IGROV1 ovarian): 3.71 µM
TGI (OVCAR-3 ovarian): 3.07 µM
TGI (A498 renal): 3.12 µM
TGI (SW-620 colon): 3.35 µM
TGI (SF-295 CNS): 3.13 µM
TGI (PC-3 prostate): 3.52 µM
TGI (OVCAR-4 ovarian): 4.26 µM
TGI (HCT-15 colon): 3.25 µM
TGI (UO-31 renal): 2.28 µM

C=CC(C)CCC(C/C=C(\C)CCC=C(C)C)C(=C)CCCC(C)C (configuration not stated)
TGI (IGROV1 ovarian): > 100 µM
TGI (OVCAR-3 ovarian): > 100 µM
TGI (A498 renal): > 100 µM
TGI (SW-620 colon): > 100 µM
TGI (SF-295 CNS): > 100 µM
TGI (PC-3 prostate): > 100 µM
TGI (OVCAR-4 ovarian): > 100 µM
TGI (HCT-15 colon): > 100 µM
TGI (UO-31 renal): > 100 µM

CCOC(=O)/C=C1\c2ccccc2C(=O)N1CC(=O)OCC
TGI (IGROV1 ovarian): > 100 µM
TGI (OVCAR-3 ovarian): > 100 µM
TGI (A498 renal): > 100 µM
TGI (SW-620 colon): > 100 µM
TGI (SF-295 CNS): > 100 µM
TGI (PC-3 prostate): > 100 µM
TGI (OVCAR-4 ovarian): > 100 µM
TGI (HCT-15 colon): > 100 µM
TGI (UO-31 renal): > 100 µM

S=c1sc2nc(Cl)nc(Cl)c2s1
TGI (IGROV1 ovarian): 27.7 µM
TGI (OVCAR-3 ovarian): 25.2 µM
TGI (A498 renal): 32 µM
TGI (SW-620 colon): 21.1 µM
TGI (SF-295 CNS): 31.7 µM
TGI (PC-3 prostate): 27.9 µM
TGI (OVCAR-4 ovarian): 30.6 µM
TGI (HCT-15 colon): 30.7 µM
TGI (UO-31 renal): 25.1 µM

O=C(c1cccc(C(=O)c2ccc3c4c(cccc24)C(=O)N(c2ccccc2)C3=O)c1)c1ccc2c3c(cccc13)C(=O)N(c1ccccc1)C2=O
TGI (IGROV1 ovarian): > 100 µM
TGI (OVCAR-3 ovarian): > 100 µM
TGI (A498 renal): 69.5 µM
TGI (SW-620 colon): > 100 µM
TGI (SF-295 CNS): > 100 µM
TGI (PC-3 prostate): > 100 µM
TGI (OVCAR-4 ovarian): > 100 µM
TGI (HCT-15 colon): > 100 µM
TGI (UO-31 renal): > 100 µM

C=C1C(=O)O[C@H]2[C@H]1CC(=O)/C(C)=C/CC[C@@]1(C)O[C@@H]21
TGI (IGROV1 ovarian): 6.27 µM
TGI (OVCAR-3 ovarian): 0.6 µM
TGI (A498 renal): 3.6 µM
TGI (SW-620 colon): 0.768 µM
TGI (SF-295 CNS): 31.6 µM
TGI (PC-3 prostate): 6.1 µM
TGI (OVCAR-4 ovarian): 12.9 µM
TGI (HCT-15 colon): 1.56 µM
TGI (UO-31 renal): 2.29 µM
